Measured values from patent US10226448B2, “3-(1H-pyrrolo[3,2-C]pyridin-2-yl)-1H-pyrazolo[3,4-B]pyridines and therapeutic uses thereof” (Samumed, LLC, priority 2015, dated 2019).

Tests used:
Assay type in all cases: cell-based
[1] = system: primary human mesenchymal stem cells (hMSCs); assay: Induction of chondrogenesis in primary human mesenchymal stem cells (chondrogenic nodules, Rhodamine B / Nile Red); settings: 6 days; for Emax: relative to TGF-β3 (10 ng/mL) positive control, read-out: Max. Activity as % TGF-β3 activity; for EC50: concentration required to induce 50% levels of chondrogenesis vs TGF-β3, read-out: Conc (nM) of 50% TGF-β3 activity
Summary of the method: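 Primary hMSCs at passage 3–6 were fixed with 4% formaldehyde and stained with 2 μg/mL Rhodamine B plus 20 μM Nile Red to image chondrogenic nodules. Nodule counts normalized to the mean of 3 DMSO wells (fold change), averaged over 3 replicate wells per concentration. TGF-β3 served as positive control; EC50, maximum activity and the dose giving maximum are reported.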

[2] = system: SW480 colon cancer cells; assay: Cell viability assay (CellTiter-Blue) in SW480 colon cancer cells; settings: Homo sapiens; for EC50: 96 h, SW480 cell viability, four days, CellTiter-Blue; for inhibition at 10 µM: SW480, read-out: percent inhibition at 10 μM
Summary of the method: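 Fluorescence from resazurin reduced to resorufin by metabolically active cells was the read-out, taken after ~3 h with CellTiter-Blue.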

[3] = system: LL29 cells (primary human fibroblasts derived from IPF patients), α-smooth muscle actin; assay: Inhibition of the fibrotic process: αSMA staining in TGF-β1 treated primary human fibroblasts from IPF patients (LL29 cells); settings: Fibroblast; for EC50: 96 h, LL29 cells, TGF-β1 20 ng/mL, 4 days, % αSMA positive cells; for inhibition at 10 µM: read-out: percent inhibition at 10 μM
Summary of the method: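 Read-out after 4-day incubation: αSMA staining with 1 μM SYTOX green nuclear counterstain (30 min, room temperature). Cells were LL29 primary fibroblasts from IPF patients, in 1% FBS F12, exposed to TGF-β1 with test compound, referenced to TGF-β1/DMSO control wells.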

[4] = system: IL-6 in THP-1 cells; assay: IL-6 inhibition in LPS-stimulated THP-1 human monocyte cells (HTRF); settings: IL-6 inhibition, LPS-stimulated THP-1 cells, HTRF, 10-point dose-response starting from 10 μM
Summary of the method: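 THP-1 cells were serum-reduced (1% FBS, 24 h), plated at 5000 cells/well with compound for 2 h at 37 °C, then stimulated 22 h with 500 ng/mL LPS. Secreted IL-6 was quantified by HTRF (665/620 nm ratio). Signals were normalised to DMSO, and EC50 was fitted by four-parameter nonlinear regression.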

[5] = system: Wnt activity (Sp5-Luc reporter, TCF/LEF binding sites) in SW480 colon carcinoma cells; assay: Wnt activity screening assay: Sp5-Luc reporter gene assay in SW480 cells; settings: Homo sapiens; for EC50: Sp5-Luc reporter, SW480 cells, overnight incubation; for inhibition at 10 µM: SW480, read-out: percent inhibition at 10 μM
Summary of the method: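 SW480 cells stably carrying a luciferase reporter under a human Sp5 promoter with eight TCF/LEF sites, plated at 4,000 cells/well in 1% FBS medium. Luminescence read with BrightGlo, normalized to DMSO-treated cells; EC50 from four-parameter variable-slope nonlinear regression.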

Compound	Emax [1] [%]	EC50 [2] [nM]	inhibition at 10 µM [2] [%]	EC50 [3] [nM]	EC50 [4] [nM]	EC50 [5] [nM]	inhibition at 10 µM [3] [%]	EC50 [1] [nM]	inhibition at 10 µM [5] [%]
CCC(=O)Nc1cncc(-c2cnc3[nH]nc(-c4cc5cnccc5[nH]4)c3c2)c1 [Compound 253, N-(5-(3-(1H-Pyrrolo[3,2-c]pyridin-2-yl)-1H-pyrazolo[3,4-b]pyridin-5-yl)pyridin-3-yl)propionamide]	17	> 10000	50.3	3710	1000	960			
CC(C)CC(=O)Nc1cncc(-c2cnc3[nH]nc(-c4cc5c(-c6ccc(F)cc6)nccc5[nH]4)c3c2)c1 [Compound 30, N-(5-(3-(4-(4-Fluorophenyl)-1H-pyrrolo[3,2-c]pyridin-2-yl)-1H-pyrazolo[3,4-b]pyridin-5-yl)pyridin-3-yl)-3-methylbutanamide]	107	523		261	1550	996			
CC(C)CC(=O)Nc1cncc(-c2cnc3[nH]nc(-c4cc5c(N6CCN(C)CC6)nccc5[nH]4)c3c2)c1 [Compound 226, 3-Methyl-N-(5-(3-(4-(4-methylpiperazin-1-yl)-1H-pyrrolo[3,2-c]pyridin-2-yl)-1H-pyrazolo[3,4-b]pyridin-5-yl)pyridin-3-yl)butanamide]	99	> 10000	57.6	> 10000	141	3410	0		
CC(C)C(=O)Nc1cncc(-c2cnc3[nH]nc(-c4cc5c(N6CCN(C)CC6)nccc5[nH]4)c3c2)c1 [Compound 233, N-(5-(3-(4-(4-Methylpiperazin-1-yl)-1H-pyrrolo[3,2-c]pyridin-2-yl)-1H-pyrazolo[3,4-b]pyridin-5-yl)pyridin-3-yl)isobutyramide]	62	> 10000	10.7	> 10000	611	> 10000	34	30	19.5
CN1CCN(c2nccc3[nH]c(-c4n[nH]c5ncc(-c6cncc(NC(=O)C7CCCC7)c6)cc45)cc23)CC1 [Compound 246, N-(5-(3-(4-(4-Methylpiperazin-1-yl)-1H-pyrrolo[3,2-c]pyridin-2-yl)-1H-pyrazolo[3,4-b]pyridin-5-yl)pyridin-3-yl)cyclopentane carboxamide]	30	> 10000	15.4	6460	2150	> 10000			43
Nc1cncc(-c2cnc3[nH]nc(-c4cc5c(-c6ccccc6F)nccc5[nH]4)c3c2)c1 [Compound 59, 5-(3-(4-(2-Fluorophenyl)-1H-pyrrolo[3,2-c]pyridin-2-yl)-1H-pyrazolo[3,4-b]pyridin-5-yl)pyridin-3-amine]	86	762		2280	198	197		30	
CCNCc1cncc(-c2cnc3[nH]nc(-c4cc5c(-c6ccccc6F)nccc5[nH]4)c3c2)c1 [Compound 62, N-((5-(3-(4-(2-Fluorophenyl)-1H-pyrrolo[3,2-c]pyridin-2-yl)-1H-pyrazolo[3,4-b]pyridin-5-yl)pyridin-3-yl)methyl)ethanamine]	52	923		2370	1890	1080			
CN(C)Cc1cncc(-c2cnc3[nH]nc(-c4cc5c(-c6cccc(F)c6)nccc5[nH]4)c3c2)c1 [Compound 13, 1-(5-(3-(4-(3-Fluorophenyl)-1H-pyrrolo[3,2-c]pyridin-2-yl)-1H-pyrazolo[3,4-b]pyridin-5-yl)pyridin-3-yl)-N,N-dimethylmethanamine]	110	773		2440	6420	3260		10	
Cn1cc(-c2cnc3[nH]nc(-c4cc5c(-c6cccnc6)nccc5[nH]4)c3c2)cn1 [Compound 556, 5-(1-Methyl-1H-pyrazol-4-yl)-3-(4-(pyridin-3-yl)-1H-pyrrolo[3,2-c]pyridin-2-yl)-1H-pyrazolo[3,4-b]pyridine]	33	975		98	355	318			
CN1CCN(c2nccc3[nH]c(-c4n[nH]c5ncc(-c6cncc(N)c6)cc45)cc23)CC1 [Compound 227, 5-(3-(4-(4-Methylpiperazin-1-yl)-1H-pyrrolo[3,2-c]pyridin-2-yl)-1H-pyrazolo[3,4-b]pyridin-5-yl)pyridin-3-amine]	18	> 10000	14.4	> 10000	707	> 10000	0		28.1
CC(C)(C)CC(=O)Nc1cncc(-c2cnc3[nH]nc(-c4cc5cnccc5[nH]4)c3c2)c1 [Compound 268, N-(5-(3-(1H-Pyrrolo[3,2-c]pyridin-2-yl)-1H-pyrazolo[3,4-b]pyridin-5-yl)pyridin-3-yl)-3,3-dimethylbutanamide]	7	1100		3350	683	605			
Fc1cccc(-c2nccc3[nH]c(-c4n[nH]c5ncc(-c6cccnc6)cc45)cc23)c1 [Compound 4, 3-(4-(3-Fluorophenyl)-1H-pyrrolo[3,2-c]pyridin-2-yl)-5-(pyridin-3-yl)-1H-pyrazolo[3,4-b]pyridine]	50	3210		440	90	464			
O=C(Nc1cncc(-c2cnc3[nH]nc(-c4cc5c(-c6ccc(F)cc6)nccc5[nH]4)c3c2)c1)C1CCC1 [Compound 49, N-(5-(3-(4-(4-Fluorophenyl)-1H-pyrrolo[3,2-c]pyridin-2-yl)-1H-pyrazolo[3,4-b]pyridin-5-yl)pyridin-3-yl)cyclobutanecarboxamide]	208	595		360	1480	1170		10	
Fc1ccc(-c2nccc3[nH]c(-c4n[nH]c5ncc(-c6cncc(CNCc7ccccc7)c6)cc45)cc23)cc1 [Compound 52, N-Benzyl-1-(5-(3-(4-(4-fluorophenyl)-1H-pyrrolo[3,2-c]pyridin-2-yl)-1H-pyrazolo[3,4-b]pyridin-5-yl)pyridin-3-yl)methanamine]	179	346		458	1260	854		900	
O=C(Nc1cncc(-c2cnc3[nH]nc(-c4cc5c(-c6cccs6)nccc5[nH]4)c3c2)c1)C1CCC1 [Compound 357, N-(5-(3-(4-(Thiophen-2-yl)-1H-pyrrolo[3,2-c]pyridin-2-yl)-1H-pyrazolo[3,4-b]pyridin-5-yl)pyridin-3-yl)cyclobutanecarboxamide]	82	489		609	179	473		100	
CCCC(=O)Nc1cncc(-c2cnc3[nH]nc(-c4cc5c(-c6ccccc6F)nccc5[nH]4)c3c2)c1 [Compound 73, N-(5-(3-(4-(2-Fluorophenyl)-1H-pyrrolo[3,2-c]pyridin-2-yl)-1H-pyrazolo[3,4-b]pyridin-5-yl)pyridin-3-yl)butyramide]	53	348		2660	36	472			
CCCC(=O)Nc1cncc(-c2cnc3[nH]nc(-c4cc5cnccc5[nH]4)c3c2)c1 [Compound 269, N-(5-(3-(1H-Pyrrolo[3,2-c]pyridin-2-yl)-1H-pyrazolo[3,4-b]pyridin-5-yl)pyridin-3-yl)butyramide]	100	3350		2260	1020	867			
